Laboratory results as given in PubChem BioAssay (NCI).
Several values for one entry are separate records, joined by “and”; a condition that tells them apart may be missing. Identical values can stand only once.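 Results reflect a 48-hour exposure of cells in 96-well plates to compound at five concentrations. At the GI50, growth is halved. TGI marks complete inhibition of growth.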

Tests used:
Assay in all cases: NCI anticancer screen, dose series, 48 h
SK-MEL-2 melanoma = system: SK-MEL-2 melanoma
OVCAR-3 ovarian = system: OVCAR-3 ovarian
SF-539 CNS = system: SF-539 CNS
UACC-62 melanoma = system: UACC-62 melanoma
MCF7 breast = system: MCF7 breast
DU-145 prostate = system: DU-145 prostate
IGROV1 ovarian = system: IGROV1 ovarian
A549 NSCLC = system: A549 NSCLC
SN12C renal = system: SN12C renal
SW-620 colon = system: SW-620 colon

**Q.** Which GI50 (SK-MEL-2 melanoma) does the source give for `C#CCOc1cccc(Nc2ncnc3c(NC(=O)CCl)cccc23)c1` here?
**A.** 21.1 µM

**Q.** What about the TGI (SK-MEL-2 melanoma) of the same compound?
**A.** 60.8 µM

**Q.** And the GI50 (OVCAR-3 ovarian)?
**A.** 16.5 µM

**Q.** What about the TGI (OVCAR-3 ovarian) of the same compound?
**A.** 31.7 µM

**Q.** And the GI50 (SF-539 CNS)?
**A.** 16.6 µM

**Q.** And the TGI (SF-539 CNS)?
**A.** 31.3 µM

**Q.** What about the GI50 (UACC-62 melanoma) of the same compound?
**A.** 27 µM

**Q.** And the TGI (UACC-62 melanoma)?
**A.** > 100 µM

**Q.** What about the GI50 (MCF7 breast) of the same compound?
**A.** 14.5 µM

**Q.** And the TGI (MCF7 breast)?
**A.** 48.3 µM

**Q.** What about the GI50 (DU-145 prostate) of the same compound?
**A.** 17.2 µM

**Q.** And the TGI (DU-145 prostate)?
**A.** 37.8 µM

**Q.** What about the GI50 (IGROV1 ovarian) of the same compound?
**A.** 17 µM

**Q.** And the TGI (IGROV1 ovarian)?
**A.** 37.9 µM

**Q.** What about the GI50 (A549 NSCLC) of the same compound?
**A.** 22.1 µM

**Q.** What about the TGI (A549 NSCLC) of the same compound?
**A.** 49.9 µM

**Q.** What about the GI50 (SN12C renal) of the same compound?
**A.** 29.5 µM

**Q.** And the TGI (SN12C renal)?
**A.** > 100 µM

**Q.** And the GI50 (SW-620 colon)?
**A.** 20.3 µM

**Q.** What about the TGI (SW-620 colon) of the same compound?
**A.** 40.9 µM

**Q.** With `Cc1nc2ccccc2c(/C=C/c2ccc(Br)cc2)c1C(=O)/C=C/c1ccccc1` as the compound, how does the GI50 (SK-MEL-2 melanoma) read?
**A.** 1.75 µM

**Q.** And the TGI (SK-MEL-2 melanoma)?
**A.** 3.46 µM

**Q.** What about the GI50 (OVCAR-3 ovarian) of the same compound?
**A.** 1.52 µM

**Q.** What about the TGI (OVCAR-3 ovarian) of the same compound?
**A.** 3.14 µM

**Q.** And the GI50 (SF-539 CNS)?
**A.** 1.76 µM

**Q.** What about the TGI (SF-539 CNS) of the same compound?
**A.** 3.2 µM

**Q.** What about the GI50 (UACC-62 melanoma) of the same compound?
**A.** 1.54 µM

**Q.** And the TGI (UACC-62 melanoma)?
**A.** 3.01 µM

**Q.** What about the GI50 (MCF7 breast) of the same compound?
**A.** 0.895 µM

**Q.** And the TGI (MCF7 breast)?
**A.** 2.72 µM

**Q.** What about the GI50 (DU-145 prostate) of the same compound?
**A.** 1.62 µM

**Q.** And the TGI (DU-145 prostate)?
**A.** 3.15 µM

**Q.** What about the GI50 (IGROV1 ovarian) of the same compound?
**A.** 1.29 µM

**Q.** And the TGI (IGROV1 ovarian)?
**A.** 4.98 µM

**Q.** And the GI50 (A549 NSCLC)?
**A.** 1.91 µM

**Q.** And the TGI (A549 NSCLC)?
**A.** 4.57 µM

**Q.** What about the GI50 (SN12C renal) of the same compound?
**A.** 1.76 µM

**Q.** What about the TGI (SN12C renal) of the same compound?
**A.** 3.68 µM

**Q.** What about the GI50 (SW-620 colon) of the same compound?
**A.** 1.54 µM

**Q.** And the TGI (SW-620 colon)?
**A.** 4.45 µM

**Q.** What does the source list for `N/N=C1\CC(=O)NC(=O)N1`?
**A.** TGI (SK-MEL-2 melanoma): > 100 µM; TGI (OVCAR-3 ovarian): > 100 µM; TGI (UACC-62 melanoma): > 100 µM; TGI (MCF7 breast): > 100 µM; TGI (DU-145 prostate): > 100 µM; TGI (IGROV1 ovarian): > 100 µM; TGI (A549 NSCLC): > 100 µM; TGI (SN12C renal): > 100 µM; TGI (SW-620 colon): > 100 µM

**Q.** How did the GI50 (SK-MEL-2 melanoma) turn out when `C[CH2][Pb]([CH2]C)([CH2]C)[O]C(=O)c1ccc2ccccc2n1` was run?
**A.** > 10 µM

**Q.** And the TGI (SK-MEL-2 melanoma)?
**A.** > 10 µM

**Q.** And the GI50 (OVCAR-3 ovarian)?
**A.** > 10 µM

**Q.** What about the TGI (OVCAR-3 ovarian) of the same compound?
**A.** > 10 µM

**Q.** And the GI50 (SF-539 CNS)?
**A.** > 10 µM

**Q.** And the TGI (SF-539 CNS)?
**A.** > 10 µM

**Q.** What about the GI50 (UACC-62 melanoma) of the same compound?
**A.** > 10 µM

**Q.** What about the TGI (UACC-62 melanoma) of the same compound?
**A.** > 10 µM

**Q.** What about the GI50 (DU-145 prostate) of the same compound?
**A.** > 10 µM

**Q.** And the TGI (DU-145 prostate)?
**A.** > 10 µM

**Q.** What about the GI50 (IGROV1 ovarian) of the same compound?
**A.** > 10 µM

**Q.** What about the TGI (IGROV1 ovarian) of the same compound?
**A.** > 10 µM

**Q.** And the GI50 (A549 NSCLC)?
**A.** > 10 µM

**Q.** What about the TGI (A549 NSCLC) of the same compound?
**A.** > 10 µM

**Q.** And the GI50 (SN12C renal)?
**A.** > 10 µM

**Q.** What about the TGI (SN12C renal) of the same compound?
**A.** > 10 µM

**Q.** And the GI50 (SW-620 colon)?
**A.** > 10 µM

**Q.** And the TGI (SW-620 colon)?
**A.** > 10 µM

**Q.** `CC1CN1c1c(C(=O)/C=C/c2ccccc2)c(-c2ccccc2)nn(C)c1=O` (configuration not stated) was tested. Which TGI (SK-MEL-2 melanoma) did it give?
**A.** 29.9 µM

**Q.** What about the TGI (OVCAR-3 ovarian) of the same compound?
**A.** 40.8 µM

**Q.** And the TGI (SF-539 CNS)?
**A.** 30.7 µM

**Q.** And the TGI (UACC-62 melanoma)?
**A.** 36.6 µM

**Q.** What about the TGI (IGROV1 ovarian) of the same compound?
**A.** 59.8 µM

**Q.** And the TGI (A549 NSCLC)?
**A.** 70.5 µM

**Q.** What about the TGI (SN12C renal) of the same compound?
**A.** 32.6 µM

**Q.** And the TGI (SW-620 colon)?
**A.** 39.8 µM

**Q.** What does the source list for `c1ccc(P(=Nc2ccccc2N=P(c2ccccc2)(c2ccccc2)c2ccccc2)(c2ccccc2)c2ccccc2)cc1`?
**A.** TGI (OVCAR-3 ovarian): 0.783 µM; TGI (SF-539 CNS): 10.4 µM; TGI (UACC-62 melanoma): 11.7 µM; TGI (IGROV1 ovarian): 22.8 µM; TGI (A549 NSCLC): 12.6 µM; TGI (SN12C renal): 10.9 µM; TGI (SW-620 colon): 14.3 µM

**Q.** How did the TGI (SK-MEL-2 melanoma) turn out when `COCCOCOc1ccc(OCOCCOC)c2c1C(=O)c1ccccc1C2=O` was run?
**A.** > 100 µM

**Q.** And the TGI (OVCAR-3 ovarian)?
**A.** > 100 µM

**Q.** What about the TGI (SF-539 CNS) of the same compound?
**A.** > 100 µM

**Q.** And the TGI (UACC-62 melanoma)?
**A.** > 100 µM

**Q.** What about the TGI (IGROV1 ovarian) of the same compound?
**A.** > 100 µM

**Q.** What about the TGI (A549 NSCLC) of the same compound?
**A.** > 100 µM

**Q.** What about the TGI (SN12C renal) of the same compound?
**A.** > 100 µM

**Q.** And the TGI (SW-620 colon)?
**A.** > 100 µM

**Q.** What does the source list for `C/C1=C\[C@@H](O)C(=O)/C=C/C=C\c2csc(n2)[C@@H](C)NC(=O)C[C@@]2(CC1)S(=O)SC(=O)[C@]2(C)O` (some centres not stated)?
**A.** TGI (SK-MEL-2 melanoma): 0.0148 µM; TGI (SF-539 CNS): 0.0495 µM and 0.023 µM; TGI (UACC-62 melanoma): 0.0487 µM; TGI (MCF7 breast): 0.0101 µM; TGI (DU-145 prostate): 0.114 µM; GI50 (IGROV1 ovarian): 0.0237 µM; TGI (IGROV1 ovarian): 0.552 µM and 0.23 µM; TGI (A549 NSCLC): 0.713 µM and 0.368 µM; TGI (SN12C renal): 0.0882 µM and 0.0192 µM; TGI (SW-620 colon): 0.0143 µM

**Q.** For `CCO/C=C1\N=C(c2ccccc2Br)OC1=O`, which TGI (SK-MEL-2 melanoma) is on record?
**A.** > 100 µM

**Q.** And the TGI (OVCAR-3 ovarian)?
**A.** > 100 µM

**Q.** What about the TGI (SF-539 CNS) of the same compound?
**A.** > 100 µM

**Q.** And the TGI (UACC-62 melanoma)?
**A.** > 100 µM

**Q.** And the TGI (A549 NSCLC)?
**A.** > 100 µM

**Q.** What about the TGI (SN12C renal) of the same compound?
**A.** > 100 µM

**Q.** What about the TGI (SW-620 colon) of the same compound?
**A.** > 100 µM
